Assay [1] has as its target T1, METTL3/METTL14 (Homo sapiens, UniProt Q86U44). In words: Inhibition of METTL3/METTL14 (unknown origin). In kind it is protein-complex assay.
For assay [2], the system named is MOLM-13. In words: Antiproliferative activity against human MOLM-13 cells assessed as decrease cell proliferation. The assay is classed as functional, cell-based.
In assay [3] the target is N6-adenosine-methyltransferase catalytic subunit (Homo sapiens, UniProt Q86U44). In words: Inhibition of METTL3 in human MOLM-13 cells assessed as decrease in cellular m6A mRNA level incubated for 24 hrs by NanoDrop spectrophotometer based LC-MS/MS analysis. In kind it is cell-based.
Assay [4] has as its target T1, METTL3/METTL14. Put plainly: Inhibition of METTL3/METTL14 (unknown origin) using biotinylated RNA (UCUGGACUAAA-biotin) and 3H-SAM as substrate preincubated for 5 mins followed by substrate addition and measured after 30 mins by scintillation counter analysis. The assay is classed as protein-complex assay.
The test system of assay [5] is MOLM-13. Put plainly: Antiproliferative activity against human MOLM-13 cells assessed as inhibition of cell proliferation incubated for 48 hrs by Cell Titer-Glo reagent assay. In kind it is functional, cell-based. As to conditions: MOLM-13, 48 h.
The subject of assay [6] is MOLM-13. Put plainly: Antiproliferative activity against human MOLM-13 cells assessed as inhibition of cell proliferation and measured after 7 days by CellTiter-Glo assay. The assay is classed as functional, cell-based. The settings on record: MOLM-13, 168 h.
The subject of another assay is NOMO-1. In words: cells. The settings on record: Homo sapiens, NOMO-1, 168 h.
For another assay, the system named is OCI-AML-3. Put plainly: cells. The settings on record: Homo sapiens, OCI-AML-3, 168 h.
The subject of assay [7] is HL-60. Put plainly: cells. The settings on record: Homo sapiens, HL-60, 168 h.
The next assay concerns OCI-AML2. In words: cells. As to conditions: Homo sapiens, OCI-AML2, 168 h.
The test system of assay [8] is Kasumi 1. In words: cells. As to conditions: Homo sapiens, Kasumi 1, 168 h.
For the next assay, the system named is EOL1. Put plainly: cells. The settings on record: Homo sapiens, EOL1, 168 h.
Assay [9] relates to Kasumi 1. In words: Antiproliferative activity against human Kasumi 1 cells assessed as inhibition of cell proliferation incubated for 120 hrs by CellTiter-Glo assay. In kind it is functional, cell-based. As to conditions: Kasumi 1, 120 h.
The test system of assay [10] is Caov-3 cell line. Put plainly: Antiproliferative activity against human Caov-3 cell line assessed as inhibition of cell proliferation incubated for 120 hrs by CellTiter-Glo assay. In kind it is functional, cell-based. The settings on record: Caov-3, 120 h.
For assay [11], the system named is Caov-3 cell line. In words: Antiproliferative activity against human Caov-3 cell line assessed as inhibition of cell proliferation and measured after 7 days by CellTiter-Glo assay. In kind it is functional, cell-based. The settings on record: Caov-3, 168 h.
For assay [12], the target named is T1, METTL3/METTL14. In words: Inhibition of full-length His-tagged METTL3/full length FLAG-tagged METTL14 (unknown origin) expressed in baculovirus expression system using synthetic RNA 5'P-uacacucgaucuggacuaaagcugcuc-3' and SAM as substrate preincubated for 10 mins followed by substrate addition and measured after 60 mins by RF/MS analysis.
Assay [13] relates to MOLM-13. Put plainly: Antiproliferative activity against human MOLM-13 cells assessed as inhibition of cell proliferation incubated for 96 hrs by Cell Titer-Glo reagent assay. The assay is classed as functional, cell-based. The settings on record: MOLM-13, 96 h.
Assay [14] relates to MOLM-13. Put plainly: Antiproliferative activity against human MOLM-13 cells assessed as cell growth inhibition. The assay is classed as functional.
Another assay deals with THP-1. In words: Antiproliferative activity against human THP-1 cells assessed as cell growth inhibition. In kind it is functional.
In assay [15] the target is T1, METTL3/METTL14.
Assay [16] concerns HL-60. In words: Antiproliferative activity against human HL-60 cells assessed as cell growth inhibition. In kind it is functional.
The subject of the next assay is MOLM-14. Put plainly: Antiproliferative activity against human MOLM-14 cells assessed as cell growth inhibition. In kind it is functional.
Assay [17] is described as follows: Selectivity ratio of IC50 for inhibition of METTL3/METTL14 (unknown origin) to IC50 for inhibition of FLT3 (unknown origin).
A short description of assay [18]: Selectivity ratio of IC50 for inhibition of METTL3/METTL14 (unknown origin) to IC50 for inhibition of PRMT5/MEP50 (unknown origin).
Assay [19] addresses T1, METTL3/METTL14. Put plainly: Competive inhibition of full length human METTL3/METTL14 expressed in Sf9 cells using single strand RNA 5'-AAGAACCGGACUAAGCU-3' and SAM as substrate incubated for 40 mins by HTRF assay.
For assay [20], the target named is T1, METTL3/METTL14. Put plainly: Inhibition of METTL3/METTL14 (unknown origin) using RNA 5'-GGACUGGACUGGACU-3' as substrate incubated for 2 hrs by LC-MS/MS analysis. In kind it is protein-complex assay.

Compound `O=C(O)c1ccccc1OCCc1cn(-c2ccc(-c3ccc(Cl)cc3)cc2)c2ccc(-c3ccc(F)cc3)cc12` came in with an IC50 against METTL3/METTL14 [1] of 3.13 µM. Also, the EC50 in the assay on MOLM-13 [2] was found to be 26.9 µM.

Take `CNc1ccc2ccc(CCc3cncc(-n4cc(-c5ccn(C)n5)c5c(N)ncnc54)c3)cc2n1`: the IC50 is < 1 µM in assay [3], < 0.01 µM at METTL3/METTL14 [4] and < 1 µM in the assay on MOLM-13 [5].

`O=C(O)c1ccccc1OCCc1cn(C(c2ccccc2)c2ccccc2)c2ccc(-c3ccc(F)cc3)cc12` returned an IC50 against METTL3/METTL14 [1] of 6 µM.

On to `O=C(NCc1cn2cc(CNCC3CCCCC3)ccc2n1)c1cc(=O)n2ccccc2n1`, for which the IC50 in the assay with MOLM-13 [6] amounted to 1.04 µM; in the assay on NOMO-1 it was 0.6 µM; with OCI-AML-3 it was 3.2 µM; in the assay on HL-60 [7], 10.3 µM; with OCI-AML2, 1.78 µM; in the assay with Kasumi 1 [8], 0.7 µM. For the same compound, the IC50 with EOL1 was found to be 1.94 µM.

As to `Nc1ncnc2c1ccn2[C@@H]1C[C@H](c2ccc3cc(CN4CCC5(CCC5)C4)[nH]c3c2)[C@@H](O)[C@H]1O` (single isomer, unassigned), the IC50 was found to be 0.95 µM in the assay with Kasumi 1 [9] and 0.25 µM with Caov-3 cell line [10].

As to `COc1ccc2[nH]ncc2c1-c1cn(Cc2cn3cc(CNCC4CCC4)ccc3n2)nn1`, the IC50 in the assay on MOLM-13 [6] amounted to 1.17 µM; in the assay with Caov-3 cell line [11], 0.558 µM.

Regarding `Clc1cc(-c2cn(Cc3cn4cc(CNCC5CCC5)ccc4n3)nn2)c2cn[nH]c2c1`, on METTL3/METTL14 [12], the IC50 amounted to 0.00435 µM.

`Cc1c(CCOc2ccc(C(=O)O)cc2)c2cc(Cl)ccc2n1C(c1ccccc1)c1ccccc1` registered an IC50 on METTL3/METTL14 [1] of 17.3 µM.

As for `Cn1ccc(-c2cn([C@@H]3O[C@H](COc4ccc5ccc(N6CCC6)nc5c4)[C@@H](O)[C@@H]3F)c3ncnc(N)c23)n1`, the IC50 with MOLM-13 [13] was < 10 µM; in [3] it was < 1 µM; on METTL3/METTL14 [4] it was < 0.01 µM; in the assay with MOLM-13 [5], < 10 µM.

As for `O=C(O)c1ccccc1OCCc1cn(-c2ccc(-c3c(Cl)cccc3Cl)cc2)c2ccc(-c3ccc(F)cc3)cc12`, the GI50 in the assay with MOLM-13 [14] was found to be 14.6 µM; in the assay with THP-1 it was 21.6 µM; with HL-60 [16], 15.5 µM; in the assay with MOLM-14, 13.1 µM. For the same compound, the EC50 in the assay on MOLM-13 [2] is 14.6 µM. In addition, on METTL3/METTL14 [15], it took 4.92 µM to reach half-maximal inhibition (IC50).

As to `Nc1ncnc2c1c(Cl)cn2[C@@H]1C[C@H](c2ccc3cc(CNCC45CC(F)(C4)C5)[nH]c3c2)[C@@H](O)[C@H]1O`, the IC50 was 0.95 µM in the assay on Kasumi 1 [9] and 0.25 µM in the assay with Caov-3 cell line [10].

Consider `Cn1ccc(-c2cn([C@@H]3O[C@H](C(=O)Nc4ccc5ccc(N6CCC6)nc5c4)[C@@H](O)[C@@H]3F)c3ncnc(N)c23)n1`, for which the Ratio IC50 in [17] and in assay [18] was > 100 each time. Besides, on METTL3/METTL14 [4], the IC50 was < 0.01 µM.

Take `CNc1ccc2ccc(OC[C@H]3O[C@@H](n4cc([C@@H]5CCCO5)c5c(N)ncnc54)[C@@H](F)[C@@H]3O)cc2n1`: the IC50 in the assay with MOLM-13 [13] is < 10 µM; in [3], < 1 µM; against METTL3/METTL14 [4] it was < 0.01 µM; in the assay on MOLM-13 [5] it was < 10 µM.

Consider `Nc1ncnc2c1ncn2[C@@H]1O[C@H](C(=O)NCC2CCNCC2)[C@@H](O)[C@H]1O` (single isomer, unassigned), for which, on METTL3/METTL14 [19], the IC50 was > 250 µM.

Consider `CCc1cc(NCCOC)c2ccc(CCc3cncc(-n4cc(-c5ccn(C)n5)c5c(N)ncnc54)c3)cc2n1`, for which the IC50 with MOLM-13 [13] is < 10 µM; in [3] it was < 1 µM; against METTL3/METTL14 [4], < 0.01 µM.

In the case of `COc1cc(-c2cn(Cc3cn4cc(CNCC56CC(C5)C6)ccc4n3)nn2)c2cncn2c1`, the IC50 amounted to 0.419 µM in the assay on Kasumi 1 [9] and 0.11 µM in the assay on Caov-3 cell line [10].

Consider `Nc1ncnc2c1c(Br)cn2[C@@H]1C[C@H](c2ccc3cc(CNCC45CC(F)(C4)C5)[nH]c3c2)[C@@H](O)[C@H]1O`, for which the IC50 in the assay on Kasumi 1 [9] was 0.95 µM; at METTL3/METTL14 [12], < 0.006 µM; with Caov-3 cell line [10], 0.25 µM.

As to `O=c1cc(-c2ccc(O)c(O)c2)oc2cc(O)cc(O)c12` [LUTEOLIN], the IC50 on METTL3/METTL14 [20] came to 6.23 µM.

As for `O=C(O)c1ccccc1OCCc1cn(C(c2ccccc2)c2ccccc2)c2ccc(-c3ccccc3)cc12`, the IC50 against METTL3/METTL14 [1] was 8.63 µM.

(Values after ChEMBL document CHEMBL5338724, “METTL3 from Target Validation to the First Small-Molecule Inhibitors: A Medicinal Chemistry Journey” (J Med Chem, 2023).)
